From patent US10266560B2, “Bile acid analogs as FXR/TGR5 agonists and methods of use thereof” (Enanta Pharmaceuticals, Inc., priority 2014, dated 2019)
Where two headings read alike, the source gives them in different places.

Molecular target: Human FXR (NR1H4) (Homo sapiens (Human), UniProt Q96RI1)
Test: Human FXR (NR1H4) Assay (Gal4 promoter driven luciferase reporter transactivation in CHO cells)
Assay type: cell-based
Excerpt: Assays Human FXR (NR1H4) Assay
Determination of a ligand mediated Gal4 promoter driven transactivation to quantify ligand binding mediated activation of FXR. FXR Reporter Assay kit purchased from Indigo Bioscience (Catalogue number: IB00601) to determine the potency and efficacy of compound developed by Enanta that can induce FXR activation. The principle application of this reporter assay system is to quantify functional activity of human FXR. The assay utilizes non-human mammalian cells, CHO (Chinese hamster ovary) cells engineered to express human NR1H4 protein (referred to as FXR). Reporter cells also incorporate the cDNA encoding beetle luciferase which catalyzes the substrates and yields photon emission. Luminescence intensity of the reaction is quantified using a plate-reading luminometer, Envision. Reporter Cells include the luciferase reporter gene functionally linked to an FXR responsive promoter. Thus, quantifying changes in luciferase expression in the treated reporter cells provides a sensitive surrogate measure of the changes in FXR activity. […] The assay is according to the manufacturer's instructions. In brief, the assay was performed in white, 96 well plates using final volume of 200 ul containing cells with different doses of compounds. Retrieve Reporter Cells from −80° C. storage. Perform a rapid thaw of the frozen cells by transferring a 10 ml volume of 37° C. cell recovery medium into the tube of frozen cells. Recap the tube of Reporter Cells and immediately place it in a 37° C. water bath for 5-10 minutes. Retrieve the tube of Reporter Cell Suspension from the water bath. Sanitize the outside surface of the tube with a 70% alcohol swab, and then transfer it into the cell culture hood. Dispense 100 μl of cell suspension into each well of the 96-well Assay Plate. Transfer the plate into 37° C. incubator, allowing the cells adherent to the bottom of the well. Dilute compounds in Dilution Plate (DP), and administrate to cells at Assay Plate (AP). DMSO content of the samples was kept at 0.2%. Cells were incubated for additional 22 hours before luciferase activities were measured. Thirty minutes before intending to quantify FXR activity, remove Detection Substrate and Detection Buffer from the refrigerator and place them in a low-light area so that they may equilibrate to room temperature. Remove the plate's lid and discard all media contents by ejecting it into an appropriate waste container. Gently tap the inverted plate onto a clean absorbent paper towel to remove residual droplets. Cells will remain tightly adhered to well bottoms. Add 100 μl of luciferase detection reagent to each well of the assay plate. Allow the assay plate to rest at room temperature for at least 5 minutes following the addition of LDR. Set the instrument (Envision) to perform a single 5 second “plate shake” prior to reading the first assay well. Read time may be 0.5 second (500 mSec) per well.

[1] = FXR agonistic potency range; CHO reporter cells expressing human NR1H4, 22 hours incubation; read-out: EC50

Human FXR (NR1H4), sequence (Q96RI1 whole entry, the tested form may be a part): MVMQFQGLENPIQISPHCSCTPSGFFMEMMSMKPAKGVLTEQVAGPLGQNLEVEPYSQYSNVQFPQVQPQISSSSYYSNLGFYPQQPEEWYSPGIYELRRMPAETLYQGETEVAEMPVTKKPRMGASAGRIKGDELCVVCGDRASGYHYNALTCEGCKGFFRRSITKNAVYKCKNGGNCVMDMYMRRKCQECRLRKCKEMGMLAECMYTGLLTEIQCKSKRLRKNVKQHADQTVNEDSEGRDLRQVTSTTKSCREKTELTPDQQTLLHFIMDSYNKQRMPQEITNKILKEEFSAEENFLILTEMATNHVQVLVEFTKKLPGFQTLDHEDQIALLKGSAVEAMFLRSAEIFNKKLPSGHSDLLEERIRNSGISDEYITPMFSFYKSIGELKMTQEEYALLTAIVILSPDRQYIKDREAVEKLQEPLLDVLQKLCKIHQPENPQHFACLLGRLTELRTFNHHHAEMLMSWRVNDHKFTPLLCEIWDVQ

| Structure (SMILES) | EC50 [nM] | Emax (CHO, read-out: Efficacy (%)) [%] | Emax (CHO; read-out: Efficacy (%)) [%] | EC50 (read-out: EC50) [nM] | EC50 [1] [nM] |
| --- | --- | --- | --- | --- | --- |
| CC[C@@H]1C2C[C@H](O)CCC2(C)[C@H]2CCC3(C)C([C@H](C)CCC(=O)NS(=O)(=O)c4cccc([N+](=O)[O-])c4)CC[C@H]3[C@@H]2[C@@H]1O (stereo partly drawn) [Example 452] | 1000 to 10000 | 292 |  |  |  |
| CC[C@@H]1C2C[C@H](O)CCC2(C)[C@H]2CCC3(C)C([C@H](C)CCC(=O)NS(=O)(=O)c4ccc(F)cc4)CC[C@H]3[C@@H]2[C@@H]1O (stereo partly drawn) [Example 453] |  |  | 240 | 100 to 1000 |  |
| CC[C@@H]1C2C[C@H](O)CCC2(C)[C@H]2CCC3(C)C([C@H](C)CCC(=O)NS(=O)(=O)c4ccc([N+](=O)[O-])cc4)CC[C@H]3[C@@H]2[C@@H]1O (stereo partly drawn) [Example 454] |  |  | 353 | 100 to 1000 |  |
| CC[C@@H]1C2C[C@H](O)CCC2(C)[C@H]2CCC3(C)C([C@H](C)CCC(=O)NS(=O)(=O)c4ccc(OC)cc4)CC[C@H]3[C@@H]2[C@@H]1O (stereo partly drawn) [Example 455] |  | 417 |  |  | < 100 |
| CC[C@@H]1C2C[C@H](O)CCC2(C)[C@H]2CCC3(C)C([C@H](C)CCC(=O)NS(=O)(=O)c4cccc(F)c4)CC[C@H]3[C@@H]2[C@@H]1O (stereo partly drawn) [Example 456] |  | 415 |  |  | < 100 |
| CC[C@@H]1C2C[C@H](O)CCC2(C)[C@H]2CCC3(C)C([C@H](C)CCC(=O)NS(=O)(=O)c4cccc(C)c4)CC[C@H]3[C@@H]2[C@@H]1O (stereo partly drawn) [Example 457] |  | 382 |  |  | < 100 |
| CC[C@@H]1C2C[C@H](O)CCC2(C)[C@H]2CCC3(C)C([C@H](C)CCC(=O)NS(=O)(=O)c4ccccc4C(F)(F)F)CC[C@H]3[C@@H]2[C@@H]1O (stereo partly drawn) [Example 459] |  |  | 310 | 100 to 1000 |  |
| CC[C@@H]1C2C[C@H](O)CCC2(C)[C@H]2CCC3(C)C([C@H](C)CCC(=O)NS(=O)(=O)c4cccc(C(F)(F)F)c4)CC[C@H]3[C@@H]2[C@@H]1O (stereo partly drawn) [Example 460] |  | 291 |  |  | < 100 |
| CC[C@@H]1C2C[C@H](O)CCC2(C)[C@H]2CCC3(C)C([C@H](C)CCC(=O)NS(=O)(=O)c4ccc(C#N)cc4)CC[C@H]3[C@@H]2[C@@H]1O (stereo partly drawn) [Example 461] |  |  | 283 | 100 to 1000 |  |
| CC[C@@H]1C2C[C@H](O)CCC2(C)[C@H]2CCC3(C)C([C@H](C)CCC(=O)NS(=O)(=O)c4ccccn4)CC[C@H]3[C@@H]2[C@@H]1O (stereo partly drawn) [Example 462] |  |  | 297 | 100 to 1000 |  |
| CC[C@@H]1C2C[C@H](O)CCC2(C)[C@H]2CCC3(C)C([C@H](C)CCC(=O)NS(=O)(=O)c4ccncc4)CC[C@H]3[C@@H]2[C@@H]1O (stereo partly drawn) [Example 463] |  |  | 251 | 1000 to 10000 |  |
| CC[C@@H]1C2C[C@H](O)CCC2(C)[C@H]2CCC3(C)C([C@H](C)CCC(=O)NS(=O)(=O)c4cc(F)cc(F)c4)CC[C@H]3[C@@H]2[C@@H]1O (stereo partly drawn) [Example 464] |  |  | 293 | 100 to 1000 |  |
| CC[C@@H]1C2C[C@H](O)CCC2(C)[C@H]2CCC3(C)C([C@H](C)CCC(=O)NS(=O)(=O)c4ccc(C)c(F)c4)CC[C@H]3[C@@H]2[C@@H]1O (stereo partly drawn) [Example 465] |  | 303 |  |  | < 100 |
| CC[C@@H]1C2C[C@H](O)CCC2(C)[C@H]2CCC3(C)C([C@H](C)CCC(=O)NS(=O)(=O)c4cccnc4)CC[C@H]3[C@@H]2[C@@H]1O (stereo partly drawn) [Example 466] |  |  | 258 | 1000 to 10000 |  |
| CC[C@@H]1C2C[C@H](O)CCC2(C)[C@H]2CCC3(C)C([C@H](C)CCC(=O)NS(=O)(=O)c4cccs4)CC[C@H]3[C@@H]2[C@@H]1O (stereo partly drawn) [Example 467] |  |  | 315 | 100 to 1000 |  |
| CC[C@@H]1C2C[C@H](O)CCC2(C)[C@H]2CCC3(C)C([C@H](C)CCC(=O)NS(=O)(=O)C4CCCCC4)CC[C@H]3[C@@H]2[C@@H]1O (stereo partly drawn) [Example 468] |  | 480 |  |  | < 100 |
| CC[C@@H]1C2C[C@H](O)CCC2(C)[C@H]2CCC3(C)C([C@H](C)CCC(=O)NS(=O)(=O)c4cnccn4)CC[C@H]3[C@@H]2[C@@H]1O (stereo partly drawn) [Example 469] |  |  | 447 | 1000 to 10000 |  |
| CC[C@@H]1C2C[C@H](O)CCC2(C)[C@H]2CCC3(C)C([C@H](C)CCC(=O)NS(=O)(=O)c4cccc5ncccc45)CC[C@H]3[C@@H]2[C@@H]1O (stereo partly drawn) [Example 470] |  |  | 439 | 100 to 1000 |  |
